# Measurements taken from US8653146B2, “Method for treating Th17 inflammatory disease through inhibition of vascular endothelial growth factor receptors and pharmaceutical composition therefor” (Postech Academy-Industry Foundation, priority 2009, dated 2014).
# Key:
# Type in all cases: in vivo, C57BL/6 mice
# [1] = test system: Th1- and Th17-mediated immune responses; assay: Overall conclusion on lung inflammation and Th1/Th17 immune responses in asthma animal models
# Method: VEGFR inhibitors were assayed for inhibitory activity in asthma animal models suffering from Th17-mediated inflammation.
# (§1) To construct asthma animal models, C57BL/6 (female, 6 weeks old) mice were divided into groups, each consisting of five mice and sensitized with 75 μg of ovalbumn (OVA) as an allergen and 10 μg of an endotoxin (lipopolysaccharide, LPS) as an adjuvant via an intranasal route on Day 0, 1, 2 and 7. Some mice in experiment groups were intraperitoneally injected with SU5416 (purchased from Sigma) at a dose of 1 mg/kg or 10 mg/kg, or anti-Flk-1 (purchased from R&D systems) at a dose of 0.1, 1 or 10 μg 30 min before the intranasal administration of OVA and LPS. On days 14, 15, 21 and 22, OVA (50 μg) was intranasally administered to the animals after anesthesia.
# The mice were examined for pulmonary inflammation 6 hours (day 22) and 48 hours (day 24) after the last OVA administration. In this regard, the mice were anesthetized by intraperitoneal injection of a mixture of ketamin and xylazine and allowed to undergo thoracotomy to expose the trachea into which a catheter was then inserted, followed by ligation. The airway was washed by injecting 1 mL of sterile saline twice to obtain bronchoalveolar lavage (BAL) fluid. For the analysis of T lymphocytes in pulmonary tissues, cells were extracted from the local lymph nodes of the lung excised.
# [2] = test system: gamma interferon, IL-17 and IL-6 in BAL fluid; assay: Cytokine levels (gamma interferon, IL-17, IL-6) in BAL fluid of OVA/LPS asthma animal models by ELISA
# Method: as §1
# The mice were examined for pulmonary inflammation 6 hours (day 22) and 48 hours (day 24) after the last OVA administration. In this regard, the mice were anesthetized by intraperitoneal injection of a mixture of ketamin and xylazine and allowed to undergo thoracotomy to expose the trachea into which a catheter was then inserted, followed by ligation. The airway was washed by injecting 1 mL of sterile saline twice to obtain bronchoalveolar lavage (BAL) fluid. […]
# (§2) The BAL fluid was centrifuged at 4° C. at 3000 rpm for 10 min and the cell pellet thus formed was suspended in PBS (phosphate buffered saline). […] In a 1000× magnified sight under an optical microscope, 300 or more inflammatory cells were observed and classified into macrophages, lymphocytes, neutrophils, and eosinophils which were then counted. In addition, levels of gamma interferon, responsible for Th1 inflammatory response, and IL-17 and IL-6, both responsible for Th17 inflammatory response, in the BAL fluid were quantified by ELISA. […]
# Mice in the experimental groups were intraperitoneally injected with 0.1, 1.0 and 10 μg of a monoclonal antibody against VEGFR-2 (anti-Flk-1, R&D Systems) while mice in the control group were intraperitoneally injected with PBS. […] BAL fluid obtained 24 hours after the sensitization (day 1) was quantitatively analyzed for inflammatory cell and IL-6 levels and the results are shown in FIG. 13.
# [3] = test system: inflammatory cells in BAL fluid; assay: Inflammatory cell count in BAL fluid of OVA/LPS-sensitized asthma animal models; conditions: SU5416 1 mg/kg or 10 mg/kg i.p. 30 min before OVA/LPS sensitization (days 0, 1, 2, 7); 48 hours after last OVA injection (day 24); FIG. 9
# Method: as §1
# The mice were examined for pulmonary inflammation 6 hours (day 22) and 48 hours (day 24) after the last OVA administration. […]
# as §2
# [4] = test system: immune cells isolated from local lymph nodes; assay: Cytokine secretion by local lymph node immune cells in response to allergen (OVA) stimulus, ELISA; conditions: SU5416 upon sensitization; six hours after three OVA challenges (day 21); FIGS. 10b and 10c
# Method: To construct asthma animal models, C57BL/6 (female, 6 weeks old) mice were divided into groups, each consisting of five mice and sensitized with 75 μg of ovalbumn (OVA) as an allergen and 10 μg of an endotoxin (lipopolysaccharide, LPS) as an adjuvant via an intranasal route on Day 0, 1, 2 and 7. Some mice in experiment groups were intraperitoneally injected with SU5416 (purchased from Sigma) at a dose of 1 mg/kg or 10 mg/kg, or anti-Flk-1 (purchased from R&D systems) at a dose of 0.1, 1 or 10 μg 30 min before the intranasal administration of OVA and LPS. […]
# In this regard, the mice were anesthetized by intraperitoneal injection of a mixture of ketamin and xylazine and allowed to undergo thoracotomy to expose the trachea into which a catheter was then inserted, followed by ligation. The airway was washed by injecting 1 mL of sterile saline twice to obtain bronchoalveolar lavage (BAL) fluid. For the analysis of T lymphocytes in pulmonary tissues, cells were extracted from the local lymph nodes of the lung excised.
# The cells obtained from the lymph nodes were incubated for 72 hours in RPMI (Gibco) supplemented with 100 μg/ml OVA, 10% FBS, and an antibiotic before respective cytokines responsible for Th1-, Th17- and Th2-mediated inflammatory responses were quantified using ELISA. […]
# [5] = SU5416 upon sensitization, six hours after three rounds of OVA challenge (day 21), FIG. 10a
smiles,measurement,setting,value
"Cc1cc(C)c(/C=C2\C(=O)Nc3ccccc32)[nH]1 [SU5416, Semaxanib]",inflammation in the lung,[1]; summary of Examples 1 and 2,excellently suppress inflammation in the lung
same,Th1- and Th17-mediated immune responses,"[1]; summary of Examples 1 and 2, immunological perspective",suppressive of Th1- and Th17-mediated immune responses
same,IL-6 level in BAL fluid,"[2]; SU5416 10 mg/kg, 6 hours after three rounds of sensitization with OVA and LPS, vs OVA/LPS_sham, FIG. 11",lower amounts of IL-6 than did the control
same,level of IL-17 in BAL fluid,[2]; [5],significantly decrease
same,level of gamma interferon in BAL fluid,[2]; [5],significantly decrease
same,inflammatory cell count in BAL fluid,[3],reduced in a dose-dependent manner
same,IL-17 secreted by local lymph node immune cells in response to allergen stimulus,[4],significantly decreased level
same,gamma interferon secreted by local lymph node immune cells in response to allergen stimulus,[4],significantly decreased level
